Source: US5442064A, “Carboxylic acid derivatives, pharmaceutical compositions containing these compounds and processes for preparing them” (Dr. Karl Thomae GmbH, priority 1992, dated 1995)
Where a name gives a salt, the structure may show the parent alone.

Key:
human thrombocytes = experiment: Competitive binding of ^3 H-BIBU 52/test substance to human thrombocytes; details: human thrombocytes in plasma; ^3 H-BIBU 52 5 nM; ambient temperature, 20 minutes
Procedure: 1. Competitive binding of ^3 H-BIBU 52/test substance to human thrombocytes: […] Case 5/1093-FL), which replaces the ^125 I fibrinogen ligand known from the literature and various concentrations of the substance to be tested. The free and bound ligand is separated by centrifuging and quantified by scintillation counting. The inhibition of ^3 H-BIBU 52 binding by the test substance is determined from the measurements obtained. In order to do this, donor blood is taken from an anticubital vein and anticoagulated with trisodium citrate (final concentration 13 mM). The blood is centrifuged for 10 minutes at 170×g and the supernatant platelet-rich plasma (PRP) is removed. The remaining blood is vigorously centrifuged once more in order to obtain plasma. The PRP is diluted 1:10 with autologous plasma. 750 μl are incubated with 50 μl of physiological saline solution, 100 μl of test substance solution, 50 μl of ^14 C-sucrose (3,700 Bq) and 50 μl of ^3 H-BIBU 52 (final concentration: 5 nM) at ambient temperature for 20 minutes. In order to measure the non-specific binding, 5μl of BIBU 52 (final concentration: 30 μM) are used instead of the test substance. The samples are centrifuged for 20 seconds at 10,000×g and the supernatant is poured off. 100 μl thereof are measured in order to determine the free ligand. The pellet is dissolved in 500 μl of 0.2N NaOH, 450 μl are mixed with 2 ml of scintillator and 25 μl of 5N HCl and measured. The residual plasma remaining in the pellet is determined from the ^14 C-content and the bound ligand is determined from the ^3 H-measurement. After the non-specific binding has been deducted, the pellet activity is plotted against the concentration of the test substance and the concentration for 50% inhibition of binding is determined. 2. Antithrombotic activity

mice = experiment: Tolerability after intravenous administration to mice; assay type: in vivo; details: 30 mg/kg, three mice in each case
platelet aggregation = experiment: Inhibition of platelet aggregation (collagen-induced, Born and Cross, platelet-rich plasma of healthy volunteers); assay type: cell-based; details: 10 minutes preincubation at 37° C
Procedure: In order to do this, donor blood is taken from an anticubital vein and anticoagulated with trisodium citrate (final concentration 13 mM). The blood is centrifuged for 10 minutes at 170×g and the supernatant platelet-rich plasma (PRP) is removed. The remaining blood is vigorously centrifuged once more in order to obtain plasma. The PRP is diluted 1:10 with autologous plasma. 750 μl are incubated with 50 μl of physiological saline solution, 100 μl of test substance solution, 50 μl of ^14 C-sucrose (3,700 Bq) and 50 μl of ^3 H-BIBU 52 (final concentration: 5 nM) at ambient temperature for 20 minutes. In order to measure the non-specific binding, 5μl of BIBU 52 (final concentration: 30 μM) are used instead of the test substance. The samples are centrifuged for 20 seconds at 10,000×g and the supernatant is poured off. 100 μl thereof are measured in order to determine the free ligand. The pellet is dissolved in 500 μl of 0.2N NaOH, 450 μl are mixed with 2 ml of scintillator and 25 μl of 5N HCl and measured. The residual plasma remaining in the pellet is determined from the ^14 C-content and the bound ligand is determined from the ^3 H-measurement. After the non-specific binding has been deducted, the pellet activity is plotted against the concentration of the test substance and the concentration for 50% inhibition of binding is determined. 2. Antithrombotic activity The thrombocyte aggregation is measured using the method of Born and Cross (J. Physiol. 170: 397 (1964)) in platelet-rich plasma taken from healthy volunteers. To inhibit coagulation the blood is mixed with 3.14% sodium citrate in a volume ratio of 1:10. The pattern of the decrease in optical density of the platelet suspension is photometrically measured and recorded after the addition of the aggregation-triggering substance. The rate of aggregation is determined from the angle of inclination of the density curve. The point on the curve where there is maximum light transmittance is used to calculate the optical density. The concentration of collagen used is as small as possible but sufficient to produce an irreversible reaction curve. Standard commercial collagen produced by Hormonchemie of Munich is used. Before the addition of the collagen the plasma is incubated for 10 minutes with the substance at 37° C. From the concentration/activity curve an EC50 is determined, which describes the concentration giving a 50% change in the optical density in terms of the inhibition of aggregation.

[1] = test system: collagen-induced thrombocyte aggregation; experiment: Collagen-induced thrombocyte aggregation ex vivo after oral administration, Rhesus monkeys; assay type: in vivo; details: 1 mg/kg, collagen 2 μg/ml
Procedure: The inhibition of thrombocyte aggregation after oral administration of the test substance is determined ex vivo on Rhesus monkeys. Directly before the oral administration of the test substance suspended in Natrosol, a blood sample is taken from the cubital vein of the animals to provide a reference value. At specified times after the administration of the substance, fresh blood samples are taken and investigated as follows. The whole blood mixed with 3.14% sodium citrate in a ratio by volume of 1:10 is centrifuged at 200×g for 15 minutes. The supernatant, platelet-rich plasma, is carefully removed. From the sediment which is rich in erythrocytes, the platelet-poor plasma is obtained as supernatant,by centrifuging at 4000×g for 10 minutes. The thrombocyte aggregation triggered with collagen (Hormonchemie, Munich; 2 μg/ml final concentration in platelet-rich plasma) in these ex vivo samples is measured photometrically using the method of Born and Cross (J. Physiol. 170, 397 (1964)). The maximum light transmittance of the platelet-rich plasma, measured after collagen stimulation, is compared with the reference value in order to determine the inhibition of aggregation at the various times of blood sampling after the administration of the substance, relative to the reference value.

SMILES	IC50 (human thrombocytes)	tolerability (animals died) (mice)	EC50 (platelet aggregation; Homo sapiens, Platelet)	inhibits the collagen-induced thrombocyte aggregation ex vivo (duration) [1]	EC50 (platelet aggregation; human platelet-rich plasma)
CN(C(=O)N1CCN(c2ccc(C(=N)N)cn2)CC1)[C@H]1CC[C@H](C(=O)O)CC1.Cl.Cl [2(8), 1-(5-amidinopyrid-2-yl)-4-[N-(trans-4-carboxycyclohexyl)-N-methyl-aminocarbonyl]-piperazine-dihydrochloride]	27 nM	no animals died	60 nM		
Cl.Cl.N=C(N)c1ccc(N2CCN(C(=O)N[C@H]3CC[C@H](C(=O)O)CC3)CC2)nc1 [2(7), 1-(5-amidinopyrid-2-yl)-4-[N-(trans-4-carboxycyclohexyl)-aminocarbonyl]-piperazine-dihydrochloride]	29 nM	no animals died	80 nM		
NCc1ccc(N2CCN(C(=O)N[C@H]3CC[C@H](C(=O)O)CC3)CC2)cc1 [Example 3, 1-(4-Aminomethylphenyl)-4-[N-(trans-4-carboxycyclohexyl)-aminocarbonyl]-piperazine]	130 nM	no animals died	230 nM		
COC(=O)[C@H]1CC[C@H](NC(=O)C2CCN(c3ccc(C(=N)N)cc3)CC2)CC1.Cl [Example 1(24), 1-(4-amidinophenyl)-4-[N-[trans-4-(methoxycarbonyl)-cyclohexyl]-aminocarbonyl]-piperidine-hydrochloride]	4400 nM		220 nM	more than 4 hours	
Cl.Cl.N=C(N)c1ccc(N2CCN(C(=O)N[C@H]3CC[C@H](C(=O)O)CC3)CC2)cc1.O [Example 2, 1-(4-Amidinophenyl)-4-[N-[trans-4-carboxycyclohexyl]aminocarbonyl]-piperazine-dihydrochloride-hydrate]	7.4 nM	no animals died	40 nM		
COC(=O)CC1CCN(C(=O)N2CCN(c3ccc(C(=N)N)cc3)CC2)CC1 [1(25), 1-(4-amidinophenyl)-4-[4-(methoxycarbonylmethyl)-piperidinocarbonyl]-piperazine-hydrochloride]	30000 nM		6800 nM		
COC(=O)[C@H]1CC[C@H](N(C)C(=O)N2CCN(c3ccc(C(=N)N)cn3)CC2)CC1 [1(9), 1-(5-amidinopyrid-2-yl)-4-[N-[trans-4-(methoxycarbonyl)-cyclohexyl]-N-methyl-aminocarbonyl]-piperazine-hydrochloride]	17000 nM		90 nM		
COC(=O)N=C(N)c1ccc(N2CCN(C(=O)N[C@H]3CC[C@H](C(=O)OC)CC3)CC2)cc1 [Example 5, 1-[4-(N-Methoxycarbonyl-amidinc)-phenyl]-4-[N-[trans-4-(methoxycarbonyl)-cyclohexyl]-aminocarbonyl]-piperazine]		no animals died			

Further lines, with some results ahead:

IC50 (human thrombocytes)	SMILES	tolerability (animals died) (mice)	EC50 (platelet aggregation; Homo sapiens, Platelet)	inhibits the collagen-induced thrombocyte aggregation ex vivo (duration) [1]	EC50 (platelet aggregation; human platelet-rich plasma)
44 nM	N=C(N)c1ccc(N2CCN(C(=O)N3CCC(CC(=O)O)CC3)CC2)cc1 [2(17), 1-(4-amidinophenyl)-4-[4-(carboxymethyl)-piperidinocarbonyl]-piperazine-dihydrochloride]		130 nM		
47 nM	N=C(N)c1ccc(N2CCC(C(=O)N[C@H]3CC[C@H](C(=O)O)CC3)CC2)nc1 [2(2), 1-(5-amidinopyrid-2-yl)-4-[N-(trans-4-carboxycyclohexyl)-aminocarbonyl]-piperidine-dihydrochloride]		90 nM		
4 nM	N=C(N)c1ccc(N2CCC(C(=O)N(CCCc3ccccc3)[C@H]3CC[C@H](C(=O)O)CC3)CC2)cc1 [3(25), 1-(4-amidinophenyl)-4-[N-(trans-4-carboxycyclohexyl)-N-(3-phenylpropyl)-aminocarbonyl]-piperidine]		52 nM		
180 nM	N=C(N)c1ccc(N2CCC(CC(=O)NCCC(=O)O)CC2)cc1 [3(12), 1-(4-amidinophenyl) -4-[N-(2-carboxyethyl)-amino-carbonylmethyl]-piperidine]		290 nM		
540 nM	CCOC(=O)[C@H]1CC[C@H](NC(=O)N2CCN(c3ccc(C(=N)N)cc3)CC2)CC1 [Example 8, 1-(4-Amidinophenyl)-4-[N-[trans-4-(ethoxycarbonyl)-cyclohexyl]-aminocarbonyl]-piperazine-dihydrochloride]		190 nM		
12 nM	CCCCCN(C(=O)C1CCN(c2ccc(C(=N)N)cc2)CC1)[C@H]1CC[C@H](C(=O)O)CC1 [3(26), 1-(4-amidinophenyl)-4-[N-(trans-4-carboxycyclohexyl)-N-(n-pentyl)-aminocarbonyl]-piperidine]		65 nM		
370 nM	N=C(N)c1ccc(N2CCN(C(=O)N3CC=C(CC(=O)O)CC3)CC2)cc1 [2(19), 1-(4-amidinophenyl)-4-[4-(carboxymethyl)-3,4-dehydro-piperidinocarbonyl]-piperazine-dihydrochloride]		620 nM		
78 nM	N=C(N)c1ccc(N2CCC(C(=O)N3CCC(CC(=O)O)CC3)CC2)cc1 [3(4), 1-(4-amidinophenyl)-4-[4-(carboxymethyl)-piperidino-carbonyl]-piperidine]		100 nM		
74 nM	NCc1ccc(N2CCC(C(=O)N[C@H]3CC[C@H](C(=O)O)CC3)CC2)cc1 [3(17), 1-(4-aminomethylphenyl)-4-[N-(trans-4-carboxycyclo-hexyl)-aminocarbonyl]-piperidine-hydrochloride]		180 nM		
1200 nM	COC(=O)[C@H]1CC[C@H](NC(=O)N2CCC(c3ccc(C(=N)N)cc3)CC2)CC1 [1(5), 4-(4-amidinophenyl)-1-[N-[trans-4-(methoxycarbonyl)-cyclohexyl]-aminocarbonyl]-piperidine-hydrochloride]		80 nM		
4.5 nM	N=C(N)c1ccc(C2CCN(C(=O)N[C@H]3CC[C@H](C(=O)O)CC3)CC2)cc1 [2(3), 4-(4-amidinophenyl)-1-[N-(trans-4-carboxycyclohexyl)-aminocarbonyl]-piperidine-hydrochloride]				30 nM
